# Tests used:
# A549/DOX cells = test: Intrinsic cytotoxicity (MTT); type: cell-based, human; details: compound alone at 1 µM; A549/DOX; 48 h
# Description: (§1) All compounds were preliminarily studied to evaluate their intrinsic cytotoxicity at different concentrations (from 10 nM to 50 µM) in the parental HT29 and A549 and the resistant HT29/DOX and A549/DOX cells using the MTT assay.
# (§2) The intrinsic toxicity of the studied compounds was determined by an MTT assay. K562 and K562/DOX were exposed for 72 h with compounds at 1 and 3 µM concentrations while HT29, A549, HT29/DOX and A549/DOX cells were incubated for 48 h with compounds used at different concentrations (from 10 nM to 50 µM). The percentage of growth compared to the untreated control was transformed into histograms with the GraphPad Prism 5 program. […]
# HT29/DOX cells = test: Intrinsic cytotoxicity (MTT); type: cell-based, human; details: compound alone at 1 µM; HT29/DOX; 48 h
# Description: as §1, §2
# K562/DOX cells = test: Doxorubicin cytotoxicity enhancement assay (MTT); type: cell-based, human; details: 72 h
# Description: K562 is a highly undifferentiated erythroleukemia cell line. The doxorubicin-resistant K562/DOX cells overexpress almost exclusively the transporter membrane protein P-gp.
# K562/DOX cells were incubated for 72 h with different concentrations of doxorubicin in combination with 1 or 3 µM of all compounds. […] HT29, A549, HT29/DOX and A549/DOX cells were incubated for 48 h with 5 µM doxorubicin, alone or in combination with 1 or 3 µM of selected compounds. Cell viability of the cell lines was measured by the MTT assay, using a Synergy HT microplate spectrofluorometer (Bio-Tek Instruments, Winooski, VT, USA). The absorbance of untreated cells was considered 100%; results were expressed as a percentage of viable treated cells versus the control untreated cells.
# hCA I = target: T1, hCA I (Homo sapiens, UniProt P00915); test: CA inhibition, stopped-flow CO2 hydrase assay; type: biochemical; details: stopped-flow technique; incubation time 6 h; mean of 3 assays
# T1 construct: made in house
# Description: (§3) Four hCA isoforms were used in this assay: the cytosolic hCA I and II and the tumor-associated transmembrane hCA IX and XII isoforms. Acetazolamide (AAZ) was used as a standard inhibitor.
# (§4) An SX.18MV-R Applied Photophysics (Oxford, UK) stopped-flow instrument has been used to assay the catalytic/inhibition of various CA isozymes. […] Saturated CO2 solutions in water at 25 °C were used as substrate. Stock solutions of inhibitors were prepared at a concentration of 10 μM (in DMSO-water 1:1, v/v) and dilutions up to 0.01 nM were carried out with the assay buffer mentioned above. […] Inhibitor and enzyme solutions were preincubated together for 6 h at room temperature prior to assay in order to allow for the formation of the E-I complex. […] The inhibition constants were obtained by non-linear least-squares methods using the Cheng–Prusoff equation, as reported earlier, and represent the mean from at least three different determinations.
# hCA IX = target: T2, hCA IX (Homo sapiens, UniProt Q16790); test: CA inhibition, stopped-flow CO2 hydrase assay; type: biochemical; details: stopped-flow technique; incubation time 6 h; mean of 3 assays
# T2 construct: made in house
# Description: as §3, §4
# hCA II = target: T3, hCA II (Homo sapiens, UniProt P00918); test: CA inhibition, stopped-flow CO2 hydrase assay; type: biochemical; details: stopped-flow technique; incubation time 6 h; mean of 3 assays
# T3 construct: made in house
# Description: as §3, §4
# hCA XII = target: T4, hCA XII (Homo sapiens, UniProt O43570); test: CA inhibition, stopped-flow CO2 hydrase assay; type: biochemical; details: stopped-flow technique; incubation time 6 h; mean of 3 assays
# T4 construct: made in house
# Description: as §3, §4
# HT29 cells = test: Intrinsic cytotoxicity (MTT); type: cell-based, human; details: compound alone at 1 µM; parental HT29; 48 h
# Description: as §1
# (§5) The intrinsic toxicity of the studied compounds was determined by an MTT assay. K562 and K562/DOX were exposed for 72 h with compounds at 1 and 3 µM concentrations while HT29, A549, HT29/DOX and A549/DOX cells were incubated for 48 h with compounds used at different concentrations (from 10 nM to 50 µM). The percentage of growth compared to the untreated control was transformed into histograms with the GraphPad Prism 5 program.
# A549 cells = test: Intrinsic cytotoxicity (MTT); type: cell-based, human; details: compound alone at 1 µM; parental A549; 48 h
# Description: as §1, §5
# T4 sequence (O43570 25-354): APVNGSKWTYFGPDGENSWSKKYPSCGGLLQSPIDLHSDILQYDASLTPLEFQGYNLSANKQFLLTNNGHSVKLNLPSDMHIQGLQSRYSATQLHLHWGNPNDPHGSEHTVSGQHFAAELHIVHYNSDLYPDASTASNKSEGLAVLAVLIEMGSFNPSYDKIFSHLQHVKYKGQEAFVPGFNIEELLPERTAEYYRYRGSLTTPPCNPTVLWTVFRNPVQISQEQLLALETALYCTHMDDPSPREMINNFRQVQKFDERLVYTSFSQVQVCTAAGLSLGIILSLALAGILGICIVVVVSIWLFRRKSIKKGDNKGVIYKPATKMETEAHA
# T1 sequence (P00915 whole entry): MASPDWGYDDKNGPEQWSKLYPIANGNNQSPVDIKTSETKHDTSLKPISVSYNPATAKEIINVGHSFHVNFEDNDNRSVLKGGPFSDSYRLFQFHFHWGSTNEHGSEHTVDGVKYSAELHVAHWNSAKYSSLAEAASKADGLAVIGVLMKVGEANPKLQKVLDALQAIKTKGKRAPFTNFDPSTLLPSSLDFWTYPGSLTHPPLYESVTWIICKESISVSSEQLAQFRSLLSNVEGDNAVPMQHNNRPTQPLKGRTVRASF
SMILES,toxicity (A549/DOX cells),toxicity (HT29/DOX cells),RF (Reversal Fold: IC50 of doxorubicin alone / in presence of modulator) (K562/DOX cells; compound at 1 µM),RF (Reversal Fold: IC50 of doxorubicin alone / in presence of modulator) (K562/DOX cells; compound at 3 µM),Ki (hCA I),Ki (hCA IX),Ki (hCA II),Ki (hCA XII),toxicity (HT29 cells),toxicity (A549 cells)
"COc1cc(/C=C/CN2CCN(CCCOc3ccc4oc(=O)ccc4c3)CC2)cc(OC)c1OC [Compound 8, (E)-6-(3-(4-(3-(3,4,5-Trimethoxyphenyl)allyl)piperazin-1-yl)propoxy)-2H-chromen-2-one]",≥ 35%,≥ 35%,2.0,2.0,> 10 µM,0.0407 µM,> 10 µM,0.0229 µM,,
"COc1cc(/C=C/CN2CCN(CCCCOc3ccc4oc(=O)cc(C)c4c3)CC2)cc(OC)c1OC [Compound 12, (E)-4-Methyl-6-(4-(4-(3-(3,4,5-trimethoxyphenyl)allyl)piperazin-1-yl)butoxy)-2H-chromen-2-one]",≥ 35%,≥ 35%,1.9,2.7,> 10 µM,0.104 µM,> 10 µM,0.14 µM,≥ 35%,≥ 35%
"COc1cc(CN2CCN(CCCCOc3ccc4ccc(=O)oc4c3)CC2)cc(OC)c1OC [Compound 15, 7-(4-(4-(3,4,5-Trimethoxybenzyl)piperazin-1-yl)butoxy)-2H-chromen-2-one]",≥ 35%,≥ 35%,1.2,2.3,> 10 µM,0.029 µM,> 10 µM,0.0429 µM,,
"COc1cc(CN2CCN(CCCCOc3ccc4oc(=O)ccc4c3)CC2)cc(OC)c1OC [Compound 21, 6-(4-(4-(3,4,5-Trimethoxybenzyl)piperazin-1-yl)butoxy)-2H-chromen-2-one]",,,3.9,4.1,> 10 µM,0.0503 µM,> 10 µM,0.0159 µM,,
"COc1cc(CN2CCN(CCOc3ccc4oc(=O)cc(C)c4c3)CC2)cc(OC)c1OC [Compound 22, 4-Methyl-6-(2-(4-(3,4,5-trimethoxybenzyl)piperazin-1-yl)ethoxy)-2H-chromen-2-one]",,,2.8,2.7,> 10 µM,0.409 µM,> 10 µM,0.229 µM,,
"COc1cc(CN2CCN(CCCOc3ccc4oc(=O)cc(C)c4c3)CC2)cc(OC)c1OC [Compound 23, 4-Methyl-6-(3-(4-(3,4,5-trimethoxybenzyl)piperazin-1-yl)propoxy)-2H-chromen-2-one]",,,1.6,1.8,> 10 µM,0.242 µM,> 10 µM,0.304 µM,,
"COc1cc(CN2CCN(CCCCOc3ccc4oc(=O)cc(C)c4c3)CC2)cc(OC)c1OC [Compound 24, 4-Methyl-6-(4-(4-(3,4,5-trimethoxybenzyl)piperazin-1-yl)butoxy)-2H-chromen-2-one]",,,1.4,2.5,> 10 µM,0.205 µM,> 10 µM,0.0995 µM,,
"COc1ccc(C(CCCN2CCN(CCCOc3ccc4ccc(=O)oc4c3)CC2)c2ccc(OC)cc2)cc1 [Compound 26, 7-(3-(4-(4,4-Bis(4-methoxyphenyl)butyl)piperazin-1-yl)propoxy)-2H-chromen-2-one]",,,5.5,17.3,> 10 µM,0.153 µM,> 10 µM,0.115 µM,,
"COc1ccc(C(CCCN2CCN(CCCOc3ccc4c(C)cc(=O)oc4c3)CC2)c2ccc(OC)cc2)cc1 [Compound 29, 7-(3-(4-(4,4-Bis(4-methoxyphenyl)butyl)piperazin-1-yl)propoxy)-4-methyl-2H-chromen-2-one]",≥ 35%,≥ 35%,,,> 10 µM,0.149 µM,> 10 µM,0.0915 µM,≥ 35%,≥ 35%
"COc1ccc(C(CCCN2CCN(CCCCOc3ccc4c(C)cc(=O)oc4c3)CC2)c2ccc(OC)cc2)cc1 [Compound 30, 7-(4-(4-(4,4-Bis(4-methoxyphenyl)butyl)piperazin-1-yl)butoxy)-4-methyl-2H-chromen-2-one]",,,7.7,,> 10 µM,0.124 µM,> 10 µM,0.0824 µM,,
"COc1ccc(C(CCCN2CCN(CCOc3ccc4oc(=O)ccc4c3)CC2)c2ccc(OC)cc2)cc1 [Compound 31, 6-(2-(4-(4,4-Bis(4-methoxyphenyl)butyl)piperazin-1-yl)ethoxy)-2H-chromen-2-one]",,,3.0,11.4,> 10 µM,0.115 µM,> 10 µM,0.0907 µM,,
"COc1ccc(C(CCCN2CCN(CCOc3ccc4oc(=O)cc(C)c4c3)CC2)c2ccc(OC)cc2)cc1 [Compound 34, 6-(2-(4-(4,4-Bis(4-methoxyphenyl)butyl)piperazin-1-yl)ethoxy)-4-methyl-2H-chromen-2-one]",,,5.7,14.3,> 10 µM,0.666 µM,> 10 µM,0.851 µM,,
"COc1ccc(C(CCCN2CCN(CCCOc3ccc4oc(=O)cc(C)c4c3)CC2)c2ccc(OC)cc2)cc1 [Compound 35, 6-(3-(4-(4,4-Bis(4-methoxyphenyl)butyl)piperazin-1-yl)propoxy)-4-methyl-2H-chromen-2-one]",≥ 35%,≥ 35%,,14.3,> 10 µM,0.523 µM,> 10 µM,0.335 µM,≥ 35%,≥ 35%
"COc1ccc(C(CCCN2CCN(CCCCOc3ccc4oc(=O)cc(C)c4c3)CC2)c2ccc(OC)cc2)cc1 [Compound 36, 6-(4-(4-(4,4-Bis(4-methoxyphenyl)butyl)piperazin-1-yl)butoxy)-4-methyl-2H-chromen-2-one]",≥ 35%,≥ 35%,,,> 10 µM,0.332 µM,> 10 µM,0.298 µM,≥ 35%,≥ 35%
